In EP4745135A1 (Gluetacs Therapeutics (Shanghai) Co., Ltd., priority 2023, dated 2025):

Key:
IKZF1 = target: T1, IKZF1 (Homo sapiens, UniProt Q13422+Q96SW2); assay: Western blot, degradation of substrate protein in hPBMCs; type: cell-based
T1 construct: effects of the compounds of the present disclosure on the expression of target proteins in cells; endogenous in cells; host or cells: human PBMCs (Milecell Biotechnologies)

CK1α = target: T2, CK1α (Homo sapiens, UniProt P48729+Q96SW2); assay: as above; type: cell-based
T2 construct: effects of the compounds of the present disclosure on the expression of target proteins in cells; endogenous in cells; host or cells: human PBMCs (Milecell Biotechnologies)
T2 sequence (P48729 whole entry): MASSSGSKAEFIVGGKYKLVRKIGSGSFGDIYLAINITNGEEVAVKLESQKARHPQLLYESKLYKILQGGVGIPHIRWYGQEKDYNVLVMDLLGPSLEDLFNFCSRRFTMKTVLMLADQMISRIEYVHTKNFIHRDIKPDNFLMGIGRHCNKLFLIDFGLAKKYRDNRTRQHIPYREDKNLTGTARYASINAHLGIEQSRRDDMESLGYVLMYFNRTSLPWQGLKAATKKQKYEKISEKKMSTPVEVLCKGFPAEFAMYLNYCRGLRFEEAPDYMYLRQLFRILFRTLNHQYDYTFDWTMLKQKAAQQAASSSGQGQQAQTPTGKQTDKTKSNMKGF
T2 sequence (Q96SW2 whole entry): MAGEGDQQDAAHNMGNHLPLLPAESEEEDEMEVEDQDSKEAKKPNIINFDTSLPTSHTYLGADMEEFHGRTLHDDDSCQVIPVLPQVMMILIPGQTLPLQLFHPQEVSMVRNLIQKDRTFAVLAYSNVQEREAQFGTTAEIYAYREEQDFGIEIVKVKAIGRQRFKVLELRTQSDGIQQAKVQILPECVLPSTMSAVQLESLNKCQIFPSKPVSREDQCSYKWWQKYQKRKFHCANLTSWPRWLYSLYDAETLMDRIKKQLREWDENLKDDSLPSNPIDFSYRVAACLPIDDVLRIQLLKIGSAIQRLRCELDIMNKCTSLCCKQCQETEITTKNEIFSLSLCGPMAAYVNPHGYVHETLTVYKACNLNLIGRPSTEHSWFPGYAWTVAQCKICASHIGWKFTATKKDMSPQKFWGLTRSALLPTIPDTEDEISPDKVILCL
T2 sequence (Q16531 whole entry partner): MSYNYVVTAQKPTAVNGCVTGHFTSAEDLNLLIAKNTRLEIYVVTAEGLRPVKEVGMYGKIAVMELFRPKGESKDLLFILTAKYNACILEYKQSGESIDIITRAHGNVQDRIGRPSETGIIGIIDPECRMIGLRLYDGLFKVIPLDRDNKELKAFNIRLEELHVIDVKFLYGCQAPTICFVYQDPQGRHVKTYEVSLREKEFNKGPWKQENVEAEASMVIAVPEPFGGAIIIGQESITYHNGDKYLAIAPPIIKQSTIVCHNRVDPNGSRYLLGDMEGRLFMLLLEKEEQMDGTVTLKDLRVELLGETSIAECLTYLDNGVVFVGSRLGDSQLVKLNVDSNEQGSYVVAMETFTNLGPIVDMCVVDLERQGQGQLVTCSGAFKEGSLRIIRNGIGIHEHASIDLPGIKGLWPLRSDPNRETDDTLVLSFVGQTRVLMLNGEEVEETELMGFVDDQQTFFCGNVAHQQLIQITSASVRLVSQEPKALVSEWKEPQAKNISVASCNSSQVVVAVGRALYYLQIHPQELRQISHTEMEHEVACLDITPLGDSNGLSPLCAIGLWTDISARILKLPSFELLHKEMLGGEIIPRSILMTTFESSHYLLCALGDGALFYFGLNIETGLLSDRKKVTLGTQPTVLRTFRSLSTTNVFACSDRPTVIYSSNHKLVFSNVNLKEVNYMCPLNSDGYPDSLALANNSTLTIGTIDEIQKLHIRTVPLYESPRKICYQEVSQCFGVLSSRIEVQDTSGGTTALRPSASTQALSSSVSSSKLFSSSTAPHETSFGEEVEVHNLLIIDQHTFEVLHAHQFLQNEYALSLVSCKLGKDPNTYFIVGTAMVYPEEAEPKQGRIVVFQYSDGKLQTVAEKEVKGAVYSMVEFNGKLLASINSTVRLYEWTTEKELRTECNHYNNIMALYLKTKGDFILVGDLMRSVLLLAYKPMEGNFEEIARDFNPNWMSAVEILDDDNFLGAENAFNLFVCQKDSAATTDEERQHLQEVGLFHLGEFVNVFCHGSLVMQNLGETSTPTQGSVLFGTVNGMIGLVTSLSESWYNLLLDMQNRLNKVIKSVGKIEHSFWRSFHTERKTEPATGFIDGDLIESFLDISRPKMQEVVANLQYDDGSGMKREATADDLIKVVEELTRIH

IKZF2 = target: T3, IKZF2 (Homo sapiens, UniProt Q96SW2+Q9UKS7); assay: as above; type: cell-based
T3 construct: effects of the compounds of the present disclosure on the expression of target proteins in cells; endogenous in cells; host or cells: human PBMCs (Milecell Biotechnologies)
T3 sequence (Q9UKS7 whole entry): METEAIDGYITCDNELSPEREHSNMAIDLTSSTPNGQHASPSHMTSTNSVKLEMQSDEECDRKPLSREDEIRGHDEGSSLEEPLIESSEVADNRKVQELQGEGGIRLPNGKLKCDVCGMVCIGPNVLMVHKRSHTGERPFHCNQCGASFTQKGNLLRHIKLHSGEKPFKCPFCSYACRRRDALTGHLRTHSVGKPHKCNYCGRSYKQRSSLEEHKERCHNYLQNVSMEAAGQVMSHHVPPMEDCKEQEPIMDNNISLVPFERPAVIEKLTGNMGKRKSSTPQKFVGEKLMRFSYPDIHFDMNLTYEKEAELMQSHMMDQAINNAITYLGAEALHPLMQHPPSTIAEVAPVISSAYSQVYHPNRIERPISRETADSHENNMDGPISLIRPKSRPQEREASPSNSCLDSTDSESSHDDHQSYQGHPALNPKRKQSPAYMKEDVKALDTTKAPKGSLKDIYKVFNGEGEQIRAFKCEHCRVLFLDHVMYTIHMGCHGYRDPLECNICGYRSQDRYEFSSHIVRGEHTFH
T3 sequence (Q96SW2 whole entry): as the sequence (Q96SW2 whole entry) above
T3 sequence (Q16531 whole entry partner): as the sequence (Q16531 whole entry partner) above

IKZF3 = target: T4, IKZF3 (Homo sapiens, UniProt Q96SW2+Q9UKT9); assay: as above; type: cell-based
T4 construct: effects of the compounds of the present disclosure on the expression of target proteins in cells; endogenous in cells; host or cells: human PBMCs (Milecell Biotechnologies)
T4 sequence (Q9UKT9 whole entry): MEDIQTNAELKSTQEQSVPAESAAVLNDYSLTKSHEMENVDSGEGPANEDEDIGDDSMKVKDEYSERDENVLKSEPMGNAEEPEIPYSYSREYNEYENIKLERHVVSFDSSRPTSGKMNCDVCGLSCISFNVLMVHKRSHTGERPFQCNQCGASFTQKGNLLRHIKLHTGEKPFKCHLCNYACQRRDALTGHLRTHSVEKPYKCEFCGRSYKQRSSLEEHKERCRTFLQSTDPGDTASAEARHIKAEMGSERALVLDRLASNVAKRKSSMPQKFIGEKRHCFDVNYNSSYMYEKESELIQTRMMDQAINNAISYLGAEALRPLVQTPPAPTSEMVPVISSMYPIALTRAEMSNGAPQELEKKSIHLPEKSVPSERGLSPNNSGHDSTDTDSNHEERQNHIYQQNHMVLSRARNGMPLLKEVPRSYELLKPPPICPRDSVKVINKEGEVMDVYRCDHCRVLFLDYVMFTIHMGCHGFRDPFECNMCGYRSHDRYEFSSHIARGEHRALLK
T4 sequence (Q96SW2 whole entry): as the sequence (Q96SW2 whole entry) above
T4 sequence (Q16531 whole entry partner): as the sequence (Q16531 whole entry partner) above

WEE1 = target: T5, WEE1 (Homo sapiens, UniProt P30291+Q96SW2); assay: as above; type: cell-based
T5 construct: effects of the compounds of the present disclosure on the expression of target proteins in cells; endogenous in cells; host or cells: human PBMCs (Milecell Biotechnologies)
T5 sequence (P30291 whole entry): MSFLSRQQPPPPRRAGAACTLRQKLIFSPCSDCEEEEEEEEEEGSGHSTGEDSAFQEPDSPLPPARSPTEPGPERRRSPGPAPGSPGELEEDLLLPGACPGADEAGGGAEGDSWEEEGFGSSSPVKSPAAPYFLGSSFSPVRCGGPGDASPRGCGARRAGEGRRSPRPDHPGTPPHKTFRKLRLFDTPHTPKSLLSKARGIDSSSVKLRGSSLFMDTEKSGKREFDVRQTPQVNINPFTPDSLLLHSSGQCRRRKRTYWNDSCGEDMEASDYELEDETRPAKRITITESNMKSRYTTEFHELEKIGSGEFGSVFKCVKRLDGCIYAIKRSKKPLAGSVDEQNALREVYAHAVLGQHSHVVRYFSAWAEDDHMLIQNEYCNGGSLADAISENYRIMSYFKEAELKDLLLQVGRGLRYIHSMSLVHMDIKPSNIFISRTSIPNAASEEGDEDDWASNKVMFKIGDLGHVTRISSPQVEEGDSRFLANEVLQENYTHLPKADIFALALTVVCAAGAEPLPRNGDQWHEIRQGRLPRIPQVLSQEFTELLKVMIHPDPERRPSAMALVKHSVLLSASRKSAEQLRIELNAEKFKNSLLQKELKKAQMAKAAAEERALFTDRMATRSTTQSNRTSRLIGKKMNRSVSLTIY
T5 sequence (Q96SW2 whole entry): as the sequence (Q96SW2 whole entry) above
T5 sequence (Q16531 whole entry partner): as the sequence (Q16531 whole entry partner) above

[1] = target: T6, human Cereblon WT GST-tagged protein (Homo sapiens, UniProt Q96SW2); assay: CRBN-binding affinity, HTRF (CEREBLON BINDING kit); settings: for inhibition at 0.5 µM: read-out: Inhibition Rate at 0.5 µM (%); for inhibition at 2 µM: read-out: Inhibition Rate at 2 µM (%)
T6 construct: purchased CISBIO 64BDCRBNPEH
T6 sequence (Q96SW2 whole entry): as the sequence (Q96SW2 whole entry) above

GSPT1 = assay: Western blot, degradation of substrate protein in hPBMCs; type: cell-based, Human
[2] = 24 hours treatment, compounds at 50 nM and 500 nM (concentration behind the class not stated)
[3] = Western blot, 24 hours of compound treatment, compounds tested at 50 nM and 500 nM (concentration for the table not stated)

T1 sequence (Q13422 whole entry): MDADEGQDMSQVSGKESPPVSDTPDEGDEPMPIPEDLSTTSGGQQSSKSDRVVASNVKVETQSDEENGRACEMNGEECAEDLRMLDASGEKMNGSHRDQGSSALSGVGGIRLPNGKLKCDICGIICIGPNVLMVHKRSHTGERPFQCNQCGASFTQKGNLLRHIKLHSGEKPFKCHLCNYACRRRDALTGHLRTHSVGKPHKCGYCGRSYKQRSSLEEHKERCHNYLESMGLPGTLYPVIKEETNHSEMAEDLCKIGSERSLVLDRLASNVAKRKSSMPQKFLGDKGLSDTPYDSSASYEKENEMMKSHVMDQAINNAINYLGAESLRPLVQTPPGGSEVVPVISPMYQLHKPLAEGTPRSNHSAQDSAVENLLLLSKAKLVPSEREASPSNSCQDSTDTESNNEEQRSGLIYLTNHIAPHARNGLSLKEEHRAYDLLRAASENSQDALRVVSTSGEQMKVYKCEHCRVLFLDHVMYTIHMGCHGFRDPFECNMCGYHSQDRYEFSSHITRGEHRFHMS
T1 sequence (Q96SW2 whole entry): as the sequence (Q96SW2 whole entry) above
T1 sequence (Q16531 whole entry partner): as the sequence (Q16531 whole entry partner) above

SMILES	IKZF 1 substrate protein remaining % (IKZF1; [2])	CK1α substrate protein remaining % (CK1α; [2])	IKZF2 substrate protein remaining % (IKZF2; [2])	IKZF3 substrate protein remaining % (IKZF3; [2])	Wee1 substrate protein remaining % (WEE1; [2])	inhibition at 0.5 µM [1] [%]	inhibition at 2 µM [1] [%]	GSPT1 substrate protein remaining % (GSPT1; [2])	IKZF 1 substrate protein remaining % (IKZF1; [3])	CK1α substrate protein remaining % (CK1α; [3])	IKZF2 substrate protein remaining % (IKZF2; [3])	IKZF3 substrate protein remaining % (IKZF3; [3])	Wee1 substrate protein remaining % (WEE1; [3])	GSPT1 substrate protein remaining % (GSPT1; [3])	IC50 ([1]; CRBN binding, HTRF, 3 hours at room temperature, read-out: HTRF IC50) [nM]
O=C1CCC(N2Cc3cc(CN4CCC(c5ncc6ccsc6n5)CC4)ccc3C2=S)C(=O)N1 (centres unmarked) [GT-09313, 3-(5-((4-(thieno[2,3-d]pyrimidin-2-yl)piperidin-1-yl)methyl)-1-thioxoisoindolin-2-yl)piperidine-2,6-dione]	A (0% ≤ substrate protein remaining % ≤ 80%)	B (80%< substrate protein remaining %≤ 100%)	B (80%< substrate protein remaining %≤ 100%)	B (80%< substrate protein remaining %≤ 100%)	B (80%< substrate protein remaining %≤ 100%)	60 to 80	80 to 100	A (0% ≤ substrate protein remaining % ≤ 80%)							
O=C1CCC(N2Cc3c(CN4CCn5c(nnc5C(F)(F)F)C4)cccc3C2=S)C(=O)N1 (centres unmarked) [GT-08365, 3-(1-thioxo-4-((3-(trifluoromethyl)-5,6-dihydro-[1,2,4]triazolo[4,3-a]pyrazin-7(8H)-yl)methyl)isoindolin-2-yl)piperidine-2,6-dione]						40 to 53	60 to 80		B (80%< substrate protein remaining %≤ 100%)	B (80%< substrate protein remaining %≤ 100%)	B (80%< substrate protein remaining %≤ 100%)	B (80%< substrate protein remaining %≤ 100%)	B (80%< substrate protein remaining %≤ 100%)	A (0% ≤ substrate protein remaining % ≤ 80%)	
Cc1ccc(N2CCN(Cc3cccc4c3CN(C3CCC(=O)NC3=O)C4=S)CC2)cc1 (centres unmarked) [GT-08499, 3-(1-thioxo-4-((4-(p-tolyl)piperazin-1-yl)methyl)isoindolin-2-yl)piperidine-2,6-dione]						30 to 40	53 to 60		B (80%< substrate protein remaining %≤ 100%)	B (80%< substrate protein remaining %≤ 100%)	A (0% ≤ substrate protein remaining % ≤ 80%)	B (80%< substrate protein remaining %≤ 100%)	A (0% ≤ substrate protein remaining % ≤ 80%)	A (0% ≤ substrate protein remaining % ≤ 80%)	
O=C1CCC(N2Cc3c(CN4CCC(n5cnc6cc(F)ccc65)CC4)cccc3C2=S)C(=O)N1 (centres unmarked) [GT-08842, 3-(4-((4-(5-fluoro-1H-benzo[d]imidazol-1-yl)piperidin-1-yl)methyl)-1-thioxoisoindolin-2-yl)piperidine-2,6-dione]						40 to 53	80 to 100		B (80%< substrate protein remaining %≤ 100%)	B (80%< substrate protein remaining %≤ 100%)	B (80%< substrate protein remaining %≤ 100%)	B (80%< substrate protein remaining %≤ 100%)	A (0% ≤ substrate protein remaining % ≤ 80%)	B (80%< substrate protein remaining %≤ 100%)	
Cc1sc2ncnc(N3CCN(Cc4cccc5c4CN(C4CCC(=O)NC4=O)C5=S)CC3)c2c1C (centres unmarked) [GT-08916, 3-(4-((4-(5,6-dimethylthieno[2,3-d]pyrimidin-4-yl)piperazin-1-yl)methyl)-1-thioxoisoindolin-2-yl)piperidine-2,6-dione]	B (80%< substrate protein remaining %≤ 100%)	B (80%< substrate protein remaining %≤ 100%)	B (80%< substrate protein remaining %≤ 100%)	B (80%< substrate protein remaining %≤ 100%)	A (0% ≤ substrate protein remaining % ≤ 80%)	40 to 53	80 to 100	A (0% ≤ substrate protein remaining % ≤ 80%)							
O=C1CCC(N2Cc3c(CN4CCN(c5cc(Cl)cc(Cl)c5)CC4)cccc3C2=S)C(=O)N1 (centres unmarked) [GT-08629, 3-(4-((4-(3,5-dichlorophenyl)piperazin-1-yl)methyl)-1-thioxoisoindolin-2-yl)piperidine-2,6-dione]						40 to 53	60 to 80		B (80%< substrate protein remaining %≤ 100%)	A (0% ≤ substrate protein remaining % ≤ 80%)	B (80%< substrate protein remaining %≤ 100%)	B (80%< substrate protein remaining %≤ 100%)	A (0% ≤ substrate protein remaining % ≤ 80%)	B (80%< substrate protein remaining %≤ 100%)	
O=C1CCC(N2Cc3c(CN4CCC(c5ccnc(Cl)c5Cl)CC4)cccc3C2=S)C(=O)N1 (centres unmarked) [GT-08458, 3-(4-((4-(2,3-dichloropyridin-4-yl)piperidin-1-yl)methyl)-1-thioxoisoindolin-2-yl)piperidine-2,6-dione]						53 to 60	80 to 100		B (80%< substrate protein remaining %≤ 100%)	B (80%< substrate protein remaining %≤ 100%)	B (80%< substrate protein remaining %≤ 100%)	B (80%< substrate protein remaining %≤ 100%)	A (0% ≤ substrate protein remaining % ≤ 80%)	B (80%< substrate protein remaining %≤ 100%)	
O=C1CCC(N2Cc3c(CN4CCN(c5cccc(F)n5)CC4)cccc3C2=S)C(=O)N1 (centres unmarked) [GT-08698, 3-(4-((4-(6-fluoropyridin-2-yl)piperazin-1-yl)methyl)-1-thioxoisoindolin-2-yl)piperidine-2,6-dione]						60 to 80	80 to 100		B (80%< substrate protein remaining %≤ 100%)	B (80%< substrate protein remaining %≤ 100%)	B (80%< substrate protein remaining %≤ 100%)	B (80%< substrate protein remaining %≤ 100%)	A (0% ≤ substrate protein remaining % ≤ 80%)	A (0% ≤ substrate protein remaining % ≤ 80%)	
Cc1cc(N2CCN(Cc3cccc4c3CN(C3CCC(=O)NC3=O)C4=S)CC2)cc(C)n1 (centres unmarked) [GT-08806, 3-(4-((4-(2,6-dimethylpyridin-4-yl)piperazin-1-yl)methyl)-1-thioxoisoindolin-2-yl)piperidine-2,6-dione]						53 to 60	80 to 100		B (80%< substrate protein remaining %≤ 100%)	B (80%< substrate protein remaining %≤ 100%)	B (80%< substrate protein remaining %≤ 100%)	B (80%< substrate protein remaining %≤ 100%)	A (0% ≤ substrate protein remaining % ≤ 80%)	B (80%< substrate protein remaining %≤ 100%)	
O=C1CCC(N2Cc3c(CN4CC=C(c5ncnc6scc(-c7ccccc7)c56)CC4)cccc3C2=S)C(=O)N1 (centres unmarked) [GT-08957, 3-(4-((4-(5-phenylthieno[2,3-d]pyrimidin-4-yl)-3,6-dihydropyridin-1(2H)-yl)methyl)-1-thioxoisoindolin-2-yl)piperidine-2,6-dione]	B (80%< substrate protein remaining %≤ 100%)	B (80%< substrate protein remaining %≤ 100%)	B (80%< substrate protein remaining %≤ 100%)	B (80%< substrate protein remaining %≤ 100%)	A (0% ≤ substrate protein remaining % ≤ 80%)	60 to 80	80 to 100	B (80%< substrate protein remaining %≤ 100%)							
O=C1CCC(N2Cc3c(CN4CCN(c5ncnc6sc(Br)cc56)CC4)cccc3C2=S)C(=O)N1 (centres unmarked) [GT-08918, 3-(4-((4-(6-bromothieno[2,3-d]pyrimidin-4-yl)piperazin-1-yl)methyl)-1-thioxoisoindolin-2-yl)piperidine-2,6-dione]	B (80%< substrate protein remaining %≤ 100%)	B (80%< substrate protein remaining %≤ 100%)	B (80%< substrate protein remaining %≤ 100%)	B (80%< substrate protein remaining %≤ 100%)	A (0% ≤ substrate protein remaining % ≤ 80%)	60 to 80	80 to 100	B (80%< substrate protein remaining %≤ 100%)							
O=C1CCC(N2Cc3ccc(CO)cc3C2=S)C(=O)N1 (centres unmarked) [GT-05566, 3-(6-(hydroxymethyl)-1-thioxoisoindolin-2-yl)piperidine-2,6-dione]	A (0% ≤ substrate protein remaining % ≤ 80%)	B (80%< substrate protein remaining %≤ 100%)	A (0% ≤ substrate protein remaining % ≤ 80%)	A (0% ≤ substrate protein remaining % ≤ 80%)	A (0% ≤ substrate protein remaining % ≤ 80%)			B (80%< substrate protein remaining %≤ 100%)							100 to 500
